Test results published in patent EP2276483B1, “SOLID FORMS COMPRISING (+)-2-[1-(3-ETHOXY-4-METHOXYPHENYL)-2-METHYLSULFONYLETHYL]-4-ACETYLAMINOISOINDOLINE-1,3-DIONE, COMPOSITIONS THEREOF, AND USES THEREOF” (CELGENE CORPORATION, priority 2008, dated 2009).
≈ marks a conversion by molar mass, not a printed value.

Legend:
PDE4 (from U937 cells) = assay: PDE4 (U937 cell-derived) enzyme assay; assay type: biochemical, human; settings: 1 µM cAMP
Method: PDE4 enzyme was purified from U937 human monocytic cells by gel filtration chromatography as previously described (Muller et al., 1998, Bioorg. & Med. Chem. Lett. 8:2669-2674). Phosphodiesterase reactions were carried out in 50 mM Tris HCl pH 7.5, 5 mM MgCl2, 1 µM cAMP, 10 nM [^3H]-cAMP for 30 min at 30°C, terminated by boiling, treated with 1 mg/ml snake venom, and separated using AG-1XS ion exchange resin (BioRad) as described (Muller et al., 1998, Bioorg. & Med. Chem. Lett. 8:2669-2674). Reactions consumed less than 15% of available substrate. Table 1. PDE Specificity

bovine PDE1 = assay: PDE1 enzyme assay; assay type: biochemical; settings: for PDE Specificity Ratio PDE4/PDE1: from above data
human PDE2 = human PDE2 (Homo sapiens, UniProt O00408); assay: PDE2 enzyme assay; assay type: biochemical; settings: for PDE Specificity Ratio PDE4/PDE2: from above data
[1] = target: PDE3 from human platelets (Homo sapiens, UniProt Q14432); assay: PDE3 enzyme assay; assay type: biochemical; settings: for PDE Specificity Ratio PDE4/PDE3: from above data
[2] = target: T1, PDE5 from human platelets (Homo sapiens, UniProt O76074); assay: PDE5 enzyme assay; assay type: biochemical; settings: for PDE Specificity Ratio PDE4/PDE5: from above data
T1 construct: PDE5 from human platelets; from tissue; host or cells: human platelets

[3] = target: PDE7 purified from Hut78 human T cells (Homo sapiens, UniProt Q13946); assay: PDE7 enzyme assay; assay type: biochemical
Method: PDE7 is a cAMP-selective PDE expressed mainly in T cells and in skeletal muscle. T cell-derived cytokines such as IL-2 and IFN-γ are potentially regulatable via PDE7 inhibition. […] Compounds were tested against the PDE7 preparation in the presence of 10 nM cAMP as described for PDE4 in Table 1.

cAMP [4] = assay: PGE2-induced cAMP elevation in human PBMC; assay type: cell-based; settings: PGE2 (10µM)
Method: (§1) Prostaglandin E2 (PGE2) binds to prostanoid receptors on monocytes, T cells and other leukocytes and consequently elevates intracellular cAMP levels, resulting in inhibition of cellular responses. The combination of PGE2 and a PDE4 inhibitor synergistically elevates cAMP levels in these cell types, and the elevation of cAMP in PBMC caused by PDE4 inhibitors in the presence of PGE2 is proportional to the inhibitory activity of that PDE4 inhibitor. Intracellular cAMP was measured in human PBMC as follows. PBMC were isolated as described above and plated in 96-well plates at 1 x 10^6 cells per well in RPMI-1640. The cells were pre-treated with compounds at 100, 10, 1, 0.1, 0.01, and 0 µM in a final concentration of 2% DMSO in duplicate at 37°C in a humidified incubator at 5% CO2 for one hour. The cells were then stimulated with PGE2 (10µM) (Sigma) for 1h. The cells were lysed with HCl, 0.1 N final concentration to inhibit phosphodiesterase activity and the plates were frozen at -20°C. The cAMP produced was measured using cAMP (low pH) Immunoassay kit (R&D Systems).

cAMP [5] = assay: PGE2-induced cAMP elevation in human neutrophils; assay type: cell-based; settings: Neutrophil
Method: as §1
Elevation of cAMP in human neutrophils was measured as follows. PBMC were removed from source leukocytes (Sera-Tec Biologicals) by centrifugation on Ficoll-Paque Plus (Amersham Pharmacia). […]

LTB4 = assay: fMLF-induced LTB4 production in neutrophils; assay type: cell-based; settings: Neutrophil; human neutrophils; 1 µM fMLF
Method: N-formyl-methionine-leucine-phenylalanine (fMLF) is a bacterially derived peptide that activates neutrophils to rapidly degranulate, migrate, adhere to endothelial cells, and release leukotriene LTB4, a product of arachidonic acid metabolism and itself a neutrophil chemoattractant. Compounds were tested for the ability to block fMLF-induced neutrophil LTB4 production as previously described (Hatzelmann and Schudt, 2001, J. Pharm. Exp. Ther., 297:267-279), with the following modifications. Neutrophils were isolated as described above and resuspended in phosphate-buffered saline without calcium or magnesium (BioWhittaker) containing 10 mM HEPES pH 7.2 and plated in 96-well tissue culture plates at a concentration of 1.7 x 10^6 cells/well. Cells were treated with 50 µM thimerosal (Sigma)/1 mM CaCl2/1 mM MgCl2 for 15 minutes at 37°C 5% CO2, then treated with compounds at 1000, 200, 40, 8, 1.6, 0.32, 0.064, and 0 nM in a final DMSO concentration of 0.01 % in duplicate for 10 minutes. Neutrophils were stimulated with 1 µM fMLF for 30 minutes, then lysed by the addition of methanol (20% final concentration) and frozen in a dry ice/isopropanol bath for 10 minutes. Lysates were stored at -70°C until the LTB4 content was measured by competitive LTB4 ELISA (R&D Systems).

[6] = Aqueous equilibrium solubility in pH 7.4 buffer; assay type: physicochemical; settings: thermodynamic from solid; pH 7.4 aqueous buffer, room temperature; read-out: Measured solubility
Method: Equilibrium solubilities were measured in pH 7.4 aqueous buffer. The pH 7.4 buffer was prepared by adjusting the pH of a 0.07 M NaH2PO4 solution to 7.4 with 10 N NaOH. The ionic strength of the solution was 0.15. At least 1 mg of powder was combined with 1 ml of buffer to make >1 mg/ml mixture. These samples were shaken for >2 hours and left to stand overnight at room temperature. The samples were then filtered through a 0.45-µm Nylon syringe filter that was first saturated with the sample. The filtrate was sampled twice, consecutively. The filtrate was assayed by HPLC against standards prepared in 50% methanol.

[7] = target: T2, PDE6 from bovine retinal rod outer segments (Bos taurus, UniProt P11541+P23439); assay: PDE6 enzyme assay; assay type: biochemical
T2 construct: PDE6 from bovine retinal rod outer segments; from tissue; host or cells: bovine retinal rod outer segments
T2 sequence (P11541 2-856 limits assumed): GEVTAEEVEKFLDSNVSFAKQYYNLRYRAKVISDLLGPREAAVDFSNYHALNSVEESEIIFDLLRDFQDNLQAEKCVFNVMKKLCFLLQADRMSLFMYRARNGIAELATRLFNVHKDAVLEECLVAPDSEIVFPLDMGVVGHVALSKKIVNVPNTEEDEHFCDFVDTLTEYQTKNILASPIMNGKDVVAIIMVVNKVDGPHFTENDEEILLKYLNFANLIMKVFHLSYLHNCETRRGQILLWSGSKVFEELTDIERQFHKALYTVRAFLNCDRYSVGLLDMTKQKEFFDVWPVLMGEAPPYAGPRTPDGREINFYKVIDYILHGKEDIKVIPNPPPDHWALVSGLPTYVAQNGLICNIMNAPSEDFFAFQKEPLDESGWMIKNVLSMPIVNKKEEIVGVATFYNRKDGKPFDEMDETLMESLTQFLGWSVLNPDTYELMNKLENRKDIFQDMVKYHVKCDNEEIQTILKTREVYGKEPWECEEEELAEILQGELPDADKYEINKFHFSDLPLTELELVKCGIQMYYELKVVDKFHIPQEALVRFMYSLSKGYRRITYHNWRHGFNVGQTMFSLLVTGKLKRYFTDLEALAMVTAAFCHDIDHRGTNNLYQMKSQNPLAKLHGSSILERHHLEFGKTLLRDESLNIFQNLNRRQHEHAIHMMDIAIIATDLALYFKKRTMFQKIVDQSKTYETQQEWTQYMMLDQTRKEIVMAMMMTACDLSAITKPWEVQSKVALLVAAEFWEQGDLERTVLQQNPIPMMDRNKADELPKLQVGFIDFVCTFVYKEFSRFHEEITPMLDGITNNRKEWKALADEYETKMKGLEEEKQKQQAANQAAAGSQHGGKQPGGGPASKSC
T2 sequence (P23439 2-850 limits assumed): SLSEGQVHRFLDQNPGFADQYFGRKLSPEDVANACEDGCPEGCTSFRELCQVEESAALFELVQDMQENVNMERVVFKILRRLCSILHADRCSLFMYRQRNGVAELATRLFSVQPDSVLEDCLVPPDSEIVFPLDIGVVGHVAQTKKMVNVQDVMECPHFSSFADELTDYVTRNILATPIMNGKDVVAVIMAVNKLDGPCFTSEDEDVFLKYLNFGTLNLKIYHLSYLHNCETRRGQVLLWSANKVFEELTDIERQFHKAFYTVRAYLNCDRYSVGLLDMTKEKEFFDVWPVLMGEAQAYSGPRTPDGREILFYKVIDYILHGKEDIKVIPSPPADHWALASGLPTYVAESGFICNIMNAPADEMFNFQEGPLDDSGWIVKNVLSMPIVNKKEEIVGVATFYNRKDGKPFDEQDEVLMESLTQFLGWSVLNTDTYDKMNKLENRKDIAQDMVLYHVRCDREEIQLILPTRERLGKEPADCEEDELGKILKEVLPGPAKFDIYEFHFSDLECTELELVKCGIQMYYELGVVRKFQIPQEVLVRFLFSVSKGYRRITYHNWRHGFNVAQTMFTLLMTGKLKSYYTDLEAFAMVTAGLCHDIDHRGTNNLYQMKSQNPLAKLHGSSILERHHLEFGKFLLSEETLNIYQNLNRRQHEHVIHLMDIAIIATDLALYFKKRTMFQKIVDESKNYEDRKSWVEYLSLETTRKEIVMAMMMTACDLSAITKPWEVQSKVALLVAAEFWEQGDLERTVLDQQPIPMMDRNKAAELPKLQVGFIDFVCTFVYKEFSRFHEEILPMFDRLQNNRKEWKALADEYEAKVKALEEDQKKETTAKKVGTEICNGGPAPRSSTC

PDE3 from human platelets, sequence (Q14432 whole entry): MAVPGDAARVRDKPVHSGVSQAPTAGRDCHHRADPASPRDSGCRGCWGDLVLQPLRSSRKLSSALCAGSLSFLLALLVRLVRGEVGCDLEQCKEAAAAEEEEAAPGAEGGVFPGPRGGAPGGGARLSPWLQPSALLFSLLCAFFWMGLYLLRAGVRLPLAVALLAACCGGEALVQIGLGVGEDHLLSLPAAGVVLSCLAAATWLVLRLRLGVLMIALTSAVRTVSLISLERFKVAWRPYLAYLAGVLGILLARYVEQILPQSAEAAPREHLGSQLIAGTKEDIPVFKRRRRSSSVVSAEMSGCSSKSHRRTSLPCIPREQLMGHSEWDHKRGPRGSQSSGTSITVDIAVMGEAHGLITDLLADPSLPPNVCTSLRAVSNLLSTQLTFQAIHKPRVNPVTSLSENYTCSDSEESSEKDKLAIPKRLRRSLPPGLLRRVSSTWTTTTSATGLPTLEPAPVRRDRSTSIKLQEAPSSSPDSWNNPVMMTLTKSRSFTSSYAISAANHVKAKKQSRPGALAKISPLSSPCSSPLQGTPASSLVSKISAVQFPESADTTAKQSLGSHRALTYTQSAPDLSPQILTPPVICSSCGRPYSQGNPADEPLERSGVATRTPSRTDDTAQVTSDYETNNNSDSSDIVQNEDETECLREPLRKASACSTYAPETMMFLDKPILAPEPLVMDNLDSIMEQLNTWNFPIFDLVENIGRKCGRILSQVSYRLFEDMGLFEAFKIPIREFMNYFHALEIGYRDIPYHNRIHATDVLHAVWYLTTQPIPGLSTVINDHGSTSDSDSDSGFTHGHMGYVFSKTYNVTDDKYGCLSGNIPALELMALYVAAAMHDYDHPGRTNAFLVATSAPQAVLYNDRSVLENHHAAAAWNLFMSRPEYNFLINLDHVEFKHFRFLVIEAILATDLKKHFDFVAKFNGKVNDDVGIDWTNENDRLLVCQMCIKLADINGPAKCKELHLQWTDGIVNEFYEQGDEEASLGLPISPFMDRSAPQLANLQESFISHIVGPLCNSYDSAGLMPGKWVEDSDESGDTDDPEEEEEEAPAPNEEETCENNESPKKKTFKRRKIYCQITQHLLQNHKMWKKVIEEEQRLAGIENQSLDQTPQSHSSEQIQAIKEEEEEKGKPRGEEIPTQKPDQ
human PDE2, sequence (O00408 whole entry): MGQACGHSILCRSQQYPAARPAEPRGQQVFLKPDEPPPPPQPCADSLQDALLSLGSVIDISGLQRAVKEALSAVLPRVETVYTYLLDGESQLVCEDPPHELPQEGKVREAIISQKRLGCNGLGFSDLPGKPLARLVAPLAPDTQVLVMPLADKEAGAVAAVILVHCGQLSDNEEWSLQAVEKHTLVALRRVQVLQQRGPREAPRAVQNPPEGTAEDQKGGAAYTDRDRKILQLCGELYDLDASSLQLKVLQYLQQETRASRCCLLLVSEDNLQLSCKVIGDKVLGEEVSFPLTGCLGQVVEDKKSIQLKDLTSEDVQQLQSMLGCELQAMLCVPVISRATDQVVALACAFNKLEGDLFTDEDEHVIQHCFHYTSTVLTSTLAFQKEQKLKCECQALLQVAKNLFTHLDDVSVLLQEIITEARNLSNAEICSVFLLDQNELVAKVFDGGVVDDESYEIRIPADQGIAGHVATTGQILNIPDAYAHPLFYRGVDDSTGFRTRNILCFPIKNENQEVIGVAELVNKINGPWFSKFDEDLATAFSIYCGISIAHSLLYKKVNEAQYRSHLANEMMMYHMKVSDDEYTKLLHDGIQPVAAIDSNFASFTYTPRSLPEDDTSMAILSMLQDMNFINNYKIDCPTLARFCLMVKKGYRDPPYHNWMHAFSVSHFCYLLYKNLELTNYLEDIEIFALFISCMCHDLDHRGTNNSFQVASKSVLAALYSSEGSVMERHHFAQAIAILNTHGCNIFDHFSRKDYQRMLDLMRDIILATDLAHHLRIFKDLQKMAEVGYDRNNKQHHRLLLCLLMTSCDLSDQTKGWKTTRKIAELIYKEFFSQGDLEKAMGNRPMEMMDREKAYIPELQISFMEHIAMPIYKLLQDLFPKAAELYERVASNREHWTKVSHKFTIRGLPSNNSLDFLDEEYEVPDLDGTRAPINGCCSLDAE
PDE7 purified from Hut78 human T cells, sequence (Q13946 whole entry): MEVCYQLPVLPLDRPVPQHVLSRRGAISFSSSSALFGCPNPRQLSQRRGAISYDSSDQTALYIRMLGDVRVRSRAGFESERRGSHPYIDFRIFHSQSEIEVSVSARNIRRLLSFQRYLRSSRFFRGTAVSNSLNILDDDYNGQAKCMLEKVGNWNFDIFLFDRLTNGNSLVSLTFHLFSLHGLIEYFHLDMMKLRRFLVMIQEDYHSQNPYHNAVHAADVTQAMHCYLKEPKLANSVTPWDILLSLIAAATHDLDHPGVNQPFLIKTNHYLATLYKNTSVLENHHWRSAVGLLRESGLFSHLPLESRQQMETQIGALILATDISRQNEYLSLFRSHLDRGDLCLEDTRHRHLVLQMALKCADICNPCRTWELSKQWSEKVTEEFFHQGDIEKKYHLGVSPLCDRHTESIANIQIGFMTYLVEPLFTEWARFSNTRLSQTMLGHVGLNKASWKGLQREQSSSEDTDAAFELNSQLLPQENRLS

| PDE2(% inhib at 10 µM) (human PDE2; 10 µM) [%] | PDE3 (% inhib at 10 µM) ([1]; 10 µM) [%] | PDE5 (% inhib at 10 µM) ([2]; 10 µM) [%] | PDE6 (% inhib at 10 µM) ([7]; 10 µM) [%] | PDE Specificity Ratio PDE4/PDE6 ([7]; from above data) [fold] | SMILES | IC50 (PDE4 (from U937 cells)) [µM] | PDE1 (% inhib at 10 µM) (bovine PDE1) [%] | PDE Specificity Ratio PDE4/PDE1 (bovine PDE1) [fold] | PDE Specificity Ratio PDE4/PDE2 (human PDE2) [fold] | inhibition at 10 µM (human PDE2; read-out: PDE2(% inhib at 10 µM)) [%] | PDE Specificity Ratio PDE4/PDE3 [1] [fold] | inhibition at 10 µM ([1]; read-out: PDE3 (% inhib at 10 µM)) [%] | PDE Specificity Ratio PDE4/PDE5 [2] [fold] | inhibition at 10 µM ([2]; read-out: PDE5 (% inhib at 10 µM)) [%] | IC50 ([3]; 10 nM cAMP) [µM] | PDE Specificity Ratio PDE7 IC50/PDE4 IC50 ([3]; from above data) [fold] | EC50 (cAMP [4]) [µM] | EC50 (cAMP [5]) [µM] | IC50 (LTB4) [µM] | solubility [6] [µg/mL] |
| --- | --- | --- | --- | --- | --- | --- | --- | --- | --- | --- | --- | --- | --- | --- | --- | --- | --- | --- | --- | --- |
| – | – | – | – | – | CCOc1cc(C(CS(C)(=O)=O)N2C(=O)c3cccc(NC(C)=O)c3C2=O)ccc1OC (racemic) [Racemic Compound, 2-[1-(3-Ethoxy-4-methoxyphenyl)-2-methylsulfonylethyl]-4-acetylaminoisoindoline-1,3-dione] | 0.0818 | 9 | >2700 | >800 | 19 | >670 | 21 | >12000 | 3 | 22.1 | 270 | 3.09 | 12.6 | 0.0201 | 3.4 (≈ 7.38 µM) |
| 10 | 31 | -9 | 10 | >250 | CCOc1cc([C@H](CS(C)(=O)=O)N2C(=O)c3cccc(NC(C)=O)c3C2=O)ccc1OC [Compound B] | 0.611 | 27 | >50 | >260 | – | >45 | – | >39000 | – | – | – | – | – | – | – |
